Experimental data published in patent publication US8865623B2, “Herbicidally active cyclic diones and derivatives thereof, processes for their preparation, compositions, and method of controlling weeds” (Syngenta Limited, priority 2009, dated 2014).

Experiments:
Format in all cases: in vivo
[1] = test system: Alopecurus myosuroides (ALOMY); test: Pre-emergence herbicidal activity, glasshouse pot test; conditions: Alopecurus myosuroides, 312 h, Rate 250 g/ha, evaluated after 13 days, read-out: Pre-emergence activity ALOMY (100=total damage to plant; 0=no damage to plant)
Summary of the method: (§1)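 Visual damage (0 = no damage, 100 = total damage) was rated 13 days after spraying. Treatment was applied one day after sowing for pre-emergence, or after 8 days of cultivation for post-emergence, as aqueous spray of an acetone/water (50:50) formulation with 0.5% Tween 20.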

Avena fatua (AVEFA) [2] = test: as above; conditions: Avena fatua, 312 h, Rate 250 g/ha, evaluated after 13 days, read-out: Pre-emergence activity AVEFA (100=total damage to plant; 0=no damage to plant)
Summary of the method: as §1

[3] = test system: Echinochloa crus-galli (ECHCG); test: as above; conditions: Echinochloa crus-galli, 312 h, Rate 250 g/ha, evaluated after 13 days, read-out: Pre-emergence activity ECHCG (100=total damage to plant; 0=no damage to plant)
Summary of the method: as §1

Lolium perenne (LOLPE) [4] = test: as above; conditions: Lolium perenne, 312 h, Rate 250 g/ha, evaluated after 13 days, read-out: Pre-emergence activity LOLPE (100=total damage to plant; 0=no damage to plant)
Summary of the method: as §1

[5] = test system: Alopecurus myosuroides (ALOMY); test: Post-emergence herbicidal activity, glasshouse pot test; conditions: Alopecurus myosuroides, 312 h, rate 250 g/ha, evaluated after 13 days, read-out: Post-emergence activity ALOMY (100=total damage to plant; 0=no damage to plant)
Summary of the method: as §1

Avena fatua (AVEFA) [6] = test: as above; conditions: Avena fatua, 312 h, rate 250 g/ha, evaluated after 13 days, read-out: Post-emergence activity AVEFA (100=total damage to plant; 0=no damage to plant)
Summary of the method: as §1

[7] = test system: Echinochloa crus-galli (ECHCG); test: as above; conditions: Echinochloa crus-galli, 312 h, rate 250 g/ha, evaluated after 13 days, read-out: Post-emergence activity ECHCG (100=total damage to plant; 0=no damage to plant)
Summary of the method: as §1

Lolium perenne (LOLPE) [8] = test: as above; conditions: Lolium perenne, 312 h, rate 250 g/ha, evaluated after 13 days, read-out: Post-emergence activity LOLPE (100=total damage to plant; 0=no damage to plant)
Summary of the method: as §1

SMILES	pest or weed control at 250 g/ha ([1]; pre-emergence spray) [%]	pest or weed control at 250 g/ha (Avena fatua (AVEFA) [2]; pre-emergence spray) [%]	pest or weed control at 250 g/ha ([3]; pre-emergence spray) [%]	pest or weed control at 250 g/ha (Lolium perenne (LOLPE) [4]; pre-emergence spray) [%]	pest or weed control at 250 g/ha ([5]; glasshouse) [%]	pest or weed control at 250 g/ha (Avena fatua (AVEFA) [6]; glasshouse) [%]	pest or weed control at 250 g/ha ([7]; glasshouse) [%]	pest or weed control at 250 g/ha (Lolium perenne (LOLPE) [8]; glasshouse) [%]	pest or weed control at 250 g/ha ([1]; pre-emergence) [%]	pest or weed control at 250 g/ha (Avena fatua (AVEFA) [2]; pre-emergence) [%]	pest or weed control at 250 g/ha ([3]; pre-emergence) [%]	pest or weed control at 250 g/ha (Lolium perenne (LOLPE) [4]; pre-emergence) [%]	pest or weed control at 250 g/ha [5] [%]	pest or weed control at 250 g/ha (Avena fatua (AVEFA) [6]) [%]	pest or weed control at 250 g/ha [7] [%]	pest or weed control at 250 g/ha (Lolium perenne (LOLPE) [8]) [%]
CCc1ccc(Oc2ccc(Br)c(Cl)c2)cc1C1=C(O)[C@@H]2CC[C@](C)(C1=O)C2(C)C [Example A-241]	30	0	80	70	40	70	90	60	–	–	–	–	–	–	–	–
CCc1ccc(Oc2cc(Cl)nc(C)n2)cc1C1=C(O)C(C)(C)OC(C)(C)C1=O [Example A-130]	0	0	30	0	10	0	40	10	–	–	–	–	–	–	–	–
CCc1ccc(Oc2ccc(F)cc2F)cc1C1=C(O)CC(C)(C)CC1=O [Example A-47]	50	0	90	40	30	10	80	30	–	–	–	–	–	–	–	–
CCc1ccc(Oc2nc(F)c(Cl)cc2Cl)cc1C1=C(O)C(C)(C)OC(C)(C)C1=O [Example A-140]	20	0	50	50	70	70	100	70	–	–	–	–	–	–	–	–
CCc1ccc(Oc2ccc(Br)cc2)cc1C1=C(O)CC(C)(C)CC1=O [Example A-48]	100	30	100	70	80	40	100	70	–	–	–	–	–	–	–	–
CCc1ccc(Oc2ccc3cc(Cl)ccc3n2)cc1C1=C(O)[C@@H]2CC[C@](C)(C1=O)C2(C)C [Example A-235]	50	30	100	70	90	100	100	100	–	–	–	–	–	–	–	–
CCc1ccc(Oc2ccc(Br)cc2)cc1C1=C(O)[C@H]2CC[C@H](C2)C1=O (single isomer, unassigned) [Example A-91]	80	70	100	100	90	90	100	80	–	–	–	–	–	–	–	–
CCc1ccc(Oc2nc3ccccc3s2)cc1C1=C(O)[C@@H]2CC[C@](C)(C1=O)C2(C)C [Example A-319]	90	70	100	100	100	100	100	100	–	–	–	–	–	–	–	–
CCc1ccc(Oc2ccc([N+](=O)[O-])cc2C(F)(F)F)cc1C1=C(O)CC(C)(C)CC1=O [Example A-294]	60	0	90	70	40	40	80	20	–	–	–	–	–	–	–	–
CCc1ccc(Oc2nc3ccc(C(F)(F)F)cc3s2)cc1C1=C(O)C(C)(C)OC(C)(C)C1=O [Example A-219]	50	30	90	80	90	100	100	90	–	–	–	–	–	–	–	–
CC1(C)OC(C)(C)C(O)=C(c2cc(Oc3cnc4cc(Cl)ccc4n3)ccc2C2CC2)C1=O [Example A-279]	90	100	100	100	100	100	100	100	–	–	–	–	–	–	–	–
CC1(C)OC(C)(C)C(O)=C(c2cc(Oc3nc4ccc(Cl)cc4s3)ccc2C2CC2)C1=O [Example A-366]	–	–	–	–	–	–	–	–	50	30	90	90	100	80	100	100
CC1(C)OC(C)(C)C(O)=C(c2cc(Oc3ncc(Cl)cc3Cl)ccc2C2CC2)C1=O [Example A-364]	–	–	–	–	–	–	–	–	70	60	100	90	100	90	100	90
CCc1ccc(Oc2ccc(Cl)cc2)cc1C1=C(O)CC(C)(C)CC1=O [Example A-26]	70	40	100	80	80	40	100	70	–	–	–	–	–	–	–	–
CCc1ccc(Oc2nc3ccccc3o2)cc1C1=C(O)C(C)(C)OC(C)(C)C1=O [Example A-118]	100	80	100	100	90	80	100	100	–	–	–	–	–	–	–	–
CCc1ccc(Oc2cccc(Br)c2)cc1C1=C(O)[C@H]2CC[C@H](C2)C1=O [Example A-245]	0	0	80	50	0	10	80	20	–	–	–	–	–	–	–	–
CCc1ccc(Oc2ccc(F)cc2[N+](=O)[O-])cc1C1=C(O)C(C)(C)OC(C)(C)C1=O [Example A-230]	0	0	20	0	20	60	80	40	–	–	–	–	–	–	–	–
CCc1ccc(Oc2nc3ccc(F)cc3nc2Cl)cc1C1=C(O)C(C)(C)OC(C)(C)C1=O [Example A-173]	0	0	50	10	0	10	20	10	–	–	–	–	–	–	–	–
CCc1ccc(Oc2ccc(C#N)cc2F)cc1C1=C(O)C(C)(C)OC(C)(C)C1=O [Example A-21]	0	0	30	20	100	60	100	70	–	–	–	–	–	–	–	–
